ChEMBL document CHEMBL1201862, “PubChem BioAssay data set” (2004)
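A five-concentration, 48-hour dose response in 96-well plates underlies each endpoint, interpolated linearly between surrounding concentrations. GI50 = concentration required for 50% inhibition of growth.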 Activity calls are given as the source filed them. No stated cut-off is given here; in the data, active = GI50 up to about 1.1 µM and inactive = higher.

What was measured:
Test in all cases: NCI-60 cell line screen, 48 h
786-0 = tested on: 786-0
A498 = tested on: A498
ACHN = tested on: ACHN
HCT-116 = tested on: HCT-116
HOP-92 = tested on: HOP-92
KM12 = tested on: KM12
M14 = tested on: M14
MOLT-4 = tested on: MOLT-4
NCI-H522 = tested on: NCI-H522
OVCAR-8 = tested on: OVCAR-8
RXF 393 = tested on: RXF 393
SNB-19 = tested on: SNB-19
SNB-75 = tested on: SNB-75
SR = tested on: SR
SW-620 = tested on: SW-620
TK-10 = tested on: TK-10
UACC-62 = tested on: UACC-62
UO-31 = tested on: UO-31

Measured: GI50

O=C1NC2C=CN(Cc3ccccc3)C=C2C(=O)N2CCCC12 (stereo not drawn)
inactive: 786-0 > 100 µM | A498 > 100 µM | ACHN > 100 µM | HCT-116 > 100 µM | HOP-92 > 100 µM | KM12 > 100 µM | M14 > 100 µM | MOLT-4 > 100 µM | NCI-H522 > 100 µM | OVCAR-8 > 100 µM | RXF 393 > 100 µM | SNB-19 > 100 µM | SNB-75 > 100 µM | SR > 100 µM | SW-620 > 100 µM | TK-10 > 100 µM | UACC-62 > 100 µM | UO-31 > 100 µM

NC(CO)c1ccc(OCc2ccccc2)cc1 (stereo not drawn)
inactive: 786-0 > 100 µM | A498 > 100 µM | ACHN > 100 µM | HCT-116 > 78.7 µM | HOP-92 27.7 µM | KM12 > 100 µM | M14 > 100 µM | MOLT-4 27.5 µM | NCI-H522 42 µM | OVCAR-8 > 100 µM | RXF 393 > 73.5 µM | SNB-19 > 63.7 µM | SNB-75 20.3 µM | SR 31.2 µM | SW-620 38.8 µM | TK-10 > 100 µM | UACC-62 > 70.8 µM | UO-31 44.3 µM

COc1ccc2c(c1)[n+]([O-])c(C(=O)C/C(=N\NC(=O)C[N+](C)(C)C)C(=O)Nc1cc(Cl)ccc1Cl)c(C)[n+]2[O-]
inactive: 786-0 > 100 µM | A498 > 100 µM | ACHN > 100 µM | HCT-116 > 100 µM | HOP-92 > 100 µM | KM12 > 100 µM | M14 > 100 µM | MOLT-4 > 100 µM | NCI-H522 > 100 µM | OVCAR-8 > 100 µM | RXF 393 > 100 µM | SNB-19 > 100 µM | SNB-75 > 100 µM | SR 43.3 µM | SW-620 > 100 µM | TK-10 > 100 µM | UACC-62 97.7 µM | UO-31 > 100 µM

Cc1ccc(NC(=O)/C(C#N)=C/c2ccccc2)c(C)c1
inactive: 786-0 > 100 µM | A498 > 100 µM | ACHN > 100 µM | HCT-116 > 100 µM | HOP-92 > 100 µM | KM12 > 100 µM | M14 > 100 µM | MOLT-4 > 100 µM | NCI-H522 > 100 µM | OVCAR-8 > 100 µM | RXF 393 > 100 µM | SNB-19 > 100 µM | SNB-75 > 100 µM | SR > 100 µM | SW-620 > 100 µM | TK-10 > 100 µM | UACC-62 > 100 µM | UO-31 > 100 µM

COc1ccc(-c2cc(C(=O)Nc3cccc(C(F)(F)F)c3)nc(S)n2)cc1
inactive: 786-0 > 100 µM | A498 > 100 µM | ACHN > 100 µM | HCT-116 > 100 µM | HOP-92 > 100 µM | KM12 > 100 µM | M14 > 100 µM | MOLT-4 > 100 µM | NCI-H522 > 100 µM | OVCAR-8 > 100 µM | RXF 393 > 100 µM | SNB-19 > 100 µM | SNB-75 > 100 µM | SR > 100 µM | SW-620 > 100 µM | TK-10 > 100 µM | UACC-62 > 100 µM | UO-31 > 100 µM

COc1ccc(C(=O)C(c2ccc(OC)cc2)C2C(=O)Oc3ccccc32)cc1 (stereo not drawn)
inactive: 786-0 > 10 µM | A498 > 10 µM | ACHN > 10 µM | HCT-116 > 10 µM | HOP-92 > 10 µM | KM12 > 10 µM | M14 > 10 µM | MOLT-4 > 10 µM | NCI-H522 > 10 µM | OVCAR-8 > 10 µM | RXF 393 > 10 µM | SNB-19 > 10 µM | SNB-75 > 10 µM | SR > 10 µM | SW-620 > 10 µM | TK-10 > 10 µM | UACC-62 > 10 µM | UO-31 22.5 µM
